Laboratory results published in PubChem BioAssay AID720689 (NMMLSC, 2013).

Assay: protein batch effect on Rab7 inhibitor curves, late-stage follow-up, mechanism study, biochemical, Rab7 wildtype, bead flow cytometry, two protein sources (AID 720689)
Details: GST-Rab7 beads, Bodipy-FL-GTP binding

| EC50 (protein source 1) | EC50 (protein source 2) | SMILES |
| --- | --- | --- |
| 219 nM | 205 nM | CC1(C)Cc2c(sc(NC(=S)NC(=O)c3ccc(N=[N+]=[N-])cc3)c2C(=O)O)CO1 |
| 1260 nM | 1240 nM | CC1(C)Cc2c(sc(NC(=S)NC(=O)c3cccc(N=[N+]=[N-])c3)c2C(=O)O)CO1 |
